The record followed here is patent publication US20030157186A1, “Method for maintaining or improving the synthesis of mucins” (priority 2003, published 2003).

The experiment concerns HT29-MTX cells. Briefly: Fractional synthesis rate of mucoproteins in vitro (3H-threonine incorporation). The class given is cell-based, human. Particulars: for mucoprotein FSR: day 7 to 21, mean±SEM, n=6. Here is the method:
The effect of threonine supplementation on the mucin synthesis rate was analyzed in vitro in HT29-MTX cells (human colonic carcinoma cells). HT29-MIX cells were grown in normal Dulbecco's modified minimum essential medium (DMEM) supplemented with 10% (v/v) heat-inactivated fetal bovine serum (Life Technologies) and containing 25 mM glucose, 1% non-essential amino acids (Life Technologies), 2 mM glutamine (AJINOMOTO CO), 85 mg/L penicillin-streptomycin, 50 mg/L gentamicin, and 1.5 mg/L Amphotericin B (Life Technologies). Cells were cultured at 37° C. in an atmosphere containing 10% CO2:90% air. The culture medium was changed daily. Experiments were carried out in T75 cm^2 culture flasks between passages 10 to 20. Studies were performed in the late post-confluent period (21 days after seeding), when all cells display a mucin-secreting phenotype. For the experiment, cells were grown in the normal DMEM until confluency (7 days after seeding). Then from day 7 to day 21 after seeding, several concentrations of threonine in the DMEM were tested, namely, 0.2 mM, 0.4 mM, 0.8 mM and 1.6 mM. At day 20, L-(3-^3H) threonine (30 microCi/Flask) was added to a fresh 10 mL culture medium. The incorporation of the radioactive tracer to newly synthesized mucoproteins was determined for the following 24 hour period. After 24 hours of metabolic labeling, the culture medium of cells was removed. […] An aliquot of each homogenate was removed for the measurement of the specific radioactivity of the intracellular free threonine considered as the precursor pool. […] Purified mucins were hydrolyzed with 6M HCl (24 h at 100° C.), and their amino acid composition was determined by HPLC. […] The fractional synthesis rate (FSR) of mucoproteins was calculated and expressed in percent/day (%/d): (FSR=(Specific radioactivity of mucoprotein bound threonine/Specific radioactivity of intracellular free threonine)*100). […] The mucoprotein FSR was determined for each of the varying concentrations of threonine (mM) in the culture medium of HT29-MTX cells as further shown in FIG. 1.

For the compound `C[C@@H](O)[C@H](N)C(=O)O` [threonine], the “mucoprotein FSR” value (0.2 mM threonine in culture medium) stood at 26.4±1.4% and the “mucoprotein FSR” value (0.8 mM threonine in culture medium) is reported as 37.3±1.4%. Also, for the setting “0.2 to 1.6 mM tested”, the “threonine concentration at which mucoprotein FSR reached a plateau” value is listed as “about 0.8 mM”.
